In ChEMBL document CHEMBL3994583, “Discovery of 4-[(5-arylidene-4-oxothiazolidin-3-yl)methyl]benzoic acid derivatives active as novel potent allosteric inhibitors of protein tyrosine phosphatase 1B: In silico studies and in vitro evaluation as insulinomimetic and anti-inflammatory agents” (Eur J Med Chem, 2017):
Active and inactive are the calls of the source. The rule behind the calls is not given here.

What was measured:
C2C12 [1] = experiment: Cytotoxicity against mouse C2C12 cells assessed as reduction in cell viability after 24 hrs by MTT assay; type: cell-based; settings: c2c12, 24 h
[2] = molecular target: T1, Tyrosine-protein phosphatase non-receptor type 1 (Homo sapiens, UniProt P18031); experiment: Inhibition of full length recombinant human PTP1B using pNPP as substrate by spectrophotometric method
T1 sequence (P18031 whole entry): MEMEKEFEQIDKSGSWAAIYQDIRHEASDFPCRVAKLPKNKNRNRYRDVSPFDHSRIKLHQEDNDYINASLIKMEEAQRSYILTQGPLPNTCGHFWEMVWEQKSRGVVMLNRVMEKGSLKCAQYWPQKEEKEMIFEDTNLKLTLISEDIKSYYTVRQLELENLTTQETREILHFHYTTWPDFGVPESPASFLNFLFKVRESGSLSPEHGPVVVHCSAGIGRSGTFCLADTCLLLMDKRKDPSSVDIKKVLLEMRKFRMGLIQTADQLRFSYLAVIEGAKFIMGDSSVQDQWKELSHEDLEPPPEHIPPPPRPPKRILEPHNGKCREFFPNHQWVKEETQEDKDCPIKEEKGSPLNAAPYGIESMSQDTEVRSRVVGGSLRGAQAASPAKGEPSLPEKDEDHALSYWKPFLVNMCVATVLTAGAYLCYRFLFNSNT

[3] = molecular target: T2, Tyrosine-protein phosphatase non-receptor type 1 (Homo sapiens) (UniProt P18031); experiment: Inhibition of PTP1B in human HepG2 cells assessed as increase in phosphorylation of Akt at Ser473 residue at 50 uM after 30 mins by Western blot method; type: cell-based
T2 sequence (whole entry): T1 sequence (P18031 whole entry)

[4] = molecular target: T2, Tyrosine-protein phosphatase non-receptor type 1 (Homo sapiens); experiment: Inhibition of PTP1B in human HepG2 cells assessed as increase in phosphorylation of IRbeta at Tyr1162/1163 residues at 50 uM after 30 mins by Western blot method; type: cell-based
HepG2 = experiment: Cytotoxicity against human HepG2 cells assessed as reduction in cell viability at 25 uM after 24 hrs by MTT assay; type: cell-based; settings: hepg2, 24 h
[5] = molecular target: T1, Tyrosine-protein phosphatase non-receptor type 1; experiment: Mixed non-competitive inhibition of full length recombinant human PTP1B assessed as enzyme-substrate-inhibitor complex using pNPP as substrate by double reciprocal plot method
[6] = molecular target: T3, Tyrosine-protein phosphatase non-receptor type 1 (Mus musculus) (UniProt P35821); experiment: Inhibition of PTP1B in mouse C2C12 cells assessed as increase in phosphorylation of IRbeta at Tyr1162/1163 residues at 50 uM after 30 mins by Western blot method; type: cell-based
T3 sequence (whole entry): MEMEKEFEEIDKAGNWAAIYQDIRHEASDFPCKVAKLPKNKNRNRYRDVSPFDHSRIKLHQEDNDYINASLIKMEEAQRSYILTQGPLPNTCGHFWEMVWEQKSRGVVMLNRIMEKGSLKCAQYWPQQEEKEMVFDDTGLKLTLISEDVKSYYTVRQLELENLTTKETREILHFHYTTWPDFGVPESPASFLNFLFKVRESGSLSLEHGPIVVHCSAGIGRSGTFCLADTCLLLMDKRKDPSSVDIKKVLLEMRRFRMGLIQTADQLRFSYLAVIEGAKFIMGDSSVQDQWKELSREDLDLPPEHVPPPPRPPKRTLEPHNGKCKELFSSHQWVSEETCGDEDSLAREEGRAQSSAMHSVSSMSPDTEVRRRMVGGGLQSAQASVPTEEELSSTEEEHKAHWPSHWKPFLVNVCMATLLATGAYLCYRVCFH

[7] = molecular target: T3, Tyrosine-protein phosphatase non-receptor type 1 (Mus musculus); experiment: Inhibition of PTP1B in mouse C2C12 cells assessed as increase in phosphorylation of Akt at Ser473 residue at 50 uM after 30 mins by Western blot method; type: cell-based
NCTC-2544 [8] = experiment: Cytotoxicity against human NCTC-2544 cells assessed as reduction in cell viability at 10 uM by MTT assay; type: cell-based; settings: nctc-2544, 10 µM
[9] = molecular target: T2, Tyrosine-protein phosphatase non-receptor type 1 (Homo sapiens); experiment: Irreversible inhibition of full length recombinant human PTP1B assessed as recovery of enzyme activity up to 50 uM using pNPP as substrate preincubated for 1 hr followed by substrate addition by spectrophotometric method; parameters: scale not given: the % may be the effect or the level left
[10] = molecular target: T2, Tyrosine-protein phosphatase non-receptor type 1 (Homo sapiens); experiment: Reversible inhibition of full length recombinant human PTP1B assessed as recovery of enzyme activity up to 50 uM using pNPP as substrate preincubated for 1 hr followed by substrate addition by spectrophotometric method; parameters: scale not given: the % may be the effect or the level left
NCTC-2544 [11] = experiment: Cytotoxicity against human IFN-gamma and histamine-stimulated NCTC-2544 cells assessed as reduction in cell viability at 10 uM by MTT assay; type: cell-based; settings: nctc-2544, 10 µM
[12] = molecular target: T2, Tyrosine-protein phosphatase non-receptor type 1 (Homo sapiens); experiment: Mixed-type inhibition of full length recombinant human PTP1B assessed as enzyme-substrate-inhibitor complex at 3 to 7.5 uM using pNPP as substrate by double reciprocal plot method
NCTC-2544 [13] = experiment: Anti-inflammatory activity in IFN-gamma and histamine-stimulated human NCTC-2544 cells assessed as reduction in ICAM-1 protein expression by Western blot method; type: functional, cell-based
NCTC-2544 [14] = experiment: Anti-inflammatory activity in IFN-gamma and histamine-stimulated human NCTC-2544 cells assessed as reduction in iNOS protein expression by Western blot method; type: functional, cell-based
NCTC-2544 [15] = experiment: Anti-inflammatory activity in IFN-gamma and histamine-stimulated human NCTC-2544 cells assessed as reduction in COX-2 protein expression by Western blot method; type: functional, cell-based
[16] = molecular target: T2, Tyrosine-protein phosphatase non-receptor type 1 (Homo sapiens); experiment: Mixed-type inhibition of full length recombinant human PTP1B assessed as enzyme-substrate-inhibitor complex at 3 to 9 uM using pNPP as substrate by double reciprocal plot method
C2C12 [17] = experiment: Insulinomimetic effect in mouse C2C12 cells assessed as induction of [3H]2-deoxyglucose uptake at 50 uM preincubated for 30 mins followed by [3H]2-deoxyglucose addition measured after 15 mins by liquid scintillation counting method; type: functional, cell-based
[18] = molecular target: T1, Tyrosine-protein phosphatase non-receptor type 1; experiment: Competitive inhibition of full length recombinant human PTP1B assessed as enzyme-inhibitor complex using pNPP as substrate by double reciprocal plot method
[19] = molecular target: T2, Tyrosine-protein phosphatase non-receptor type 1 (Homo sapiens); experiment: Inhibition of PTP1B in human HepG2 cells assessed as increase in phosphorylation of IRbeta at Tyr1162/1163 residues at 50 uM by Western blot method; type: cell-based; settings: TDE = time-dependent effect
[20] = molecular target: T2, Tyrosine-protein phosphatase non-receptor type 1 (Homo sapiens); experiment: Inhibition of PTP1B in human HepG2 cells assessed as increase in phosphorylation of IRbeta at Tyr1162/1163 residues at 50 uM after 180 mins by Western blot method; type: cell-based
[21] = molecular target: T2, Tyrosine-protein phosphatase non-receptor type 1 (Homo sapiens); experiment: Competitive inhibition of full length recombinant human PTP1B assessed as enzyme-inhibitor complex up to 6 uM using pNPP as substrate by double reciprocal plot method
[22] = molecular target: T2, Tyrosine-protein phosphatase non-receptor type 1 (Homo sapiens); experiment: Competitive inhibition of full length recombinant human PTP1B assessed as enzyme-inhibitor complex up to 8 uM using pNPP as substrate by double reciprocal plot method

SMILES	IC50 [2] [µM]	inhibition [3]	inhibition [4]	inhibition [6]	inhibition [7]	Activity [9] [%]	Activity [10] [%]	Activity (C2C12 [1])	Activity (HepG2)	Activity (NCTC-2544 [8])	Activity (NCTC-2544 [11])	Activity (NCTC-2544 [13])	Activity (NCTC-2544 [14])	Activity (NCTC-2544 [15])	further results
O=C(O)c1ccc(CN2C(=O)/C(=C/c3ccc(OCc4ccccc4)cc3)SC2=S)cc1	5	–	inactive	–	–	–	75 to 100	Non-Toxic	Non-Toxic	Non-Toxic	Non-Toxic	Active	Active	Active	inhibition [12]: Active
O=C(O)c1ccc(CN2C(=O)/C(=C/c3ccc(OCCc4ccccc4)cc3)S/C2=N\c2ccc(F)cc2)cc1	1.5	–	–	Active	inactive	10 to 50	–	Non-Toxic	Non-Toxic	Toxic	–	–	–	–	Ki [5]: 1 µM
O=C(O)c1ccc(CN2C(=O)/C(=C/c3cccc(Oc4ccccc4)c3)SC2=S)cc1	7.1	–	inactive	–	–	–	75 to 100	Non-Toxic	Non-Toxic	Non-Toxic	Non-Toxic	Active	Active	Active	inhibition [16]: Active
O=C(O)c1ccc(CN2C(=O)/C(=C/c3cccc(Oc4ccccc4)c3)S/C2=N\c2ccc(F)cc2)cc1	10	Active	Active	Active	Active	10 to 50	–	Non-Toxic	Non-Toxic	Non-Toxic	Non-Toxic	inactive	Active	Active	Activity (C2C12 [17]): Active; Ki [18]: 4.4 µM
O=C(O)c1ccc(CN2C(=O)/C(=C/c3cccc(OCCc4ccccc4)c3)SC2=S)cc1	1.9	–	inactive	–	–	–	75 to 100	Non-Toxic	Non-Toxic	Toxic	Toxic	Active	Active	Active	inhibition [21]: Active
O=C(O)c1ccc(CN2C(=O)/C(=C/c3cccc(OCc4ccccc4)c3)SC2=S)cc1	5.7	–	inactive	–	–	–	75 to 100	Non-Toxic	Non-Toxic	Non-Toxic	Non-Toxic	Active	Active	Active	inhibition [22]: Active
O=C(O)c1ccc(CN2C(=O)/C(=C/c3ccc(OCc4ccccc4)cc3)S/C2=N\c2ccc(F)cc2)cc1	1.9	Active	Active	Active	inactive	–	75 to 100	Non-Toxic	Non-Toxic	Toxic	–	–	–	–	Ki [18]: 1.4 µM
O=C(O)c1ccc(CN2C(=O)/C(=C/c3ccc(OCCc4ccccc4)cc3)SC2=S)cc1	3.5	–	inactive	–	–	–	75 to 100	Non-Toxic	Non-Toxic	Toxic	Toxic	–	Active	Active	inhibition [22]: Active

The next lines start with results.

IC50 [2] [µM]	inhibition [3]	inhibition [4]	inhibition [6]	inhibition [7]	Activity [9] [%]	Activity [10] [%]	SMILES	Activity (C2C12 [1])	Activity (HepG2)	Activity (NCTC-2544 [8])	Activity (NCTC-2544 [11])	Activity (NCTC-2544 [13])	Activity (NCTC-2544 [14])	Activity (NCTC-2544 [15])	further results
4.2	Active	Active	Active	inactive	10 to 50	–	O=C(O)c1ccc(CN2C(=O)/C(=C/c3cccc(OCc4ccccc4)c3)S/C2=N\c2ccc(F)cc2)cc1	Non-Toxic	Non-Toxic	Toxic	–	–	–	–	Ki [5]: 1.5 µM
10.6	–	inactive	–	–	–	75 to 100	O=C(O)c1ccc(CN2C(=O)/C(=C/c3ccc(Oc4ccccc4)cc3)SC2=S)cc1	Non-Toxic	Non-Toxic	Non-Toxic	Non-Toxic	Active	Active	inactive	inhibition [16]: Active
5.1	Active	–	Active	Active	10 to 50	–	O=C(O)c1ccc(CN2C(=O)/C(=C/c3ccc(Oc4ccccc4)cc3)S/C2=N\c2ccc(F)cc2)cc1	Non-Toxic	Non-Toxic	Toxic	–	–	–	–	inhibition [19]: Tde; inhibition [20]: inactive; Ki [18]: 9.9 µM
14.5	–	–	Active	inactive	10 to 50	–	O=C(O)c1ccc(CN2C(=O)/C(=C/c3cccc(OCCc4ccccc4)c3)S/C2=N\c2ccc(F)cc2)cc1	Non-Toxic	Non-Toxic	Toxic	–	–	–	–	Ki [5]: 2.3 µM
